Reference: ChEMBL document CHEMBL2021765, “Design and synthesis of thiourea derivatives containing a benzo[5,6]cyclohepta[1,2-b]pyridine moiety as potential antitumor and anti-inflammatory agents” (Bioorg Med Chem Lett, 2012)

Key:
MCF7 = assay: cells; type: functional, cell-based; conditions: Homo sapiens, MCF7, 144 h
Description: Antiproliferative activity against human MCF7 cells assessed as growth inhibition after 144 hrs by crystal violet staining method

HT-29 = assay: cells; type: functional, cell-based; conditions: Homo sapiens, HT-29, 144 h
Description: Antiproliferative activity against human HT-29 cells assessed as growth inhibition after 144 hrs by crystal violet staining method

MDA-MB-231 = assay: cells; type: functional, cell-based; conditions: Homo sapiens, MDA-MB-231, 144 h
Description: Antiproliferative activity against human MDA-MB-231 cells assessed as growth inhibition after 144 hrs by crystal violet staining method

Mus musculus [1] = assay: Antiinflammatory activity in overnight fasted Kunming mouse assessed as inhibition of xylene-induced ear swelling at 4 mg/kg, ip administered before challenge for 5 days measured 1 hr post xylene challenge; type: functional; conditions: route intraperitoneal
[2] = molecular target: T1, Prostaglandin G/H synthase 1 (Ovis aries) (UniProt P05979); assay: Inhibition of ovine COX1 at 10 uM by ELISA
T1 sequence (whole entry): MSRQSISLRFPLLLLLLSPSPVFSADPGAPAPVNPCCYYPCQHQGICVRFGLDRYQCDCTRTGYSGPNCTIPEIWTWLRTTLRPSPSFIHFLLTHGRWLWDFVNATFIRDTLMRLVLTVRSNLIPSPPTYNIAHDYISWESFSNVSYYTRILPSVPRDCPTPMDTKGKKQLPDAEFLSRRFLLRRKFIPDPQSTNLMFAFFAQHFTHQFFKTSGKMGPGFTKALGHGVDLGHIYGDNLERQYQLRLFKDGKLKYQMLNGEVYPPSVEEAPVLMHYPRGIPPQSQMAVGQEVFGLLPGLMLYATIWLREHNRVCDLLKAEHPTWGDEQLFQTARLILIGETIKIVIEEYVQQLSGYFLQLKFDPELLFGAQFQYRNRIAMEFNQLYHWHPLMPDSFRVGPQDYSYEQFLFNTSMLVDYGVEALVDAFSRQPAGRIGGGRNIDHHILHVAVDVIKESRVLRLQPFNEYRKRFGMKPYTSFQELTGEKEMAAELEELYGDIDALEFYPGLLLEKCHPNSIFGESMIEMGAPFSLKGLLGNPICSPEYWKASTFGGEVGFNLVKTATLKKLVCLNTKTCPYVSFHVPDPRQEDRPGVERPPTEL

Mus musculus [3] = assay: Antiinflammatory activity in overnight fasted Kunming mouse assessed as inhibition of xylene-induced ear swelling at 30 mg/kg, ip administered before challenge for 5 days measured 1 hr post xylene challenge; type: functional; conditions: route intraperitoneal

Compound	IC50 (MCF7) [µM]	IC50 (HT-29) [µM]	IC50 (MDA-MB-231) [µM]	inhibition in vivo at 4 mg/kg (Mus musculus [1]) [%]	inhibition [2] [%]	inhibition in vivo at 30 mg/kg (Mus musculus [3]) [%]
O=c1[nH]cc(F)c(=O)[nH]1 [FLUOROURACIL]	4.7	–	–	–	–	–
CCOC(=O)N1CCC(=C2c3ccc(Cl)cc3CCc3cccnc32)CC1 [LORATADINE]	7.5	6.2	8.4	–	–	–
S=C(Nc1ccccc1)N1CCC(=C2c3ccc(Cl)cc3CCc3cccnc32)CC1	5.6	6.7	6.4	21.7	–	–
CC(=O)Oc1ccccc1C(=O)O	–	–	–	–	29	–
COc1ccccc1NC(=S)N1CCC(=C2c3ccc(Cl)cc3CCc3cccnc32)CC1	7.6	9.2	10.4	21.7	–	–
Cc1ccccc1NC(=S)N1CCC(=C2c3ccc(Cl)cc3CCc3cccnc32)CC1	5.4	6.6	4.7	13	–	–
S=C(NC1CCCCC1)N1CCC(=C2c3ccc(Cl)cc3CCc3cccnc32)CC1	5.1	6.2	8.1	30.4	11.6	–
CNC(=S)N1CCC(=C2c3ccc(Cl)cc3CCc3cccnc32)CC1	9.4	9.6	7.1	26.1	–	–
CC(C)Cc1ccc(C(C)C(=O)O)cc1 (stereo not drawn) [IBUPROFEN]	–	–	–	8.69	–	39.1
